Where “and” joins values, the source holds several entries; their conditions need not be identical. Identical values can stand only once. Peptide text beside a SMILES is read from it.
Key:
hepatic GSH = experiment: Test No. 4: dichloropropane (DCP) intoxication in vivo, hepatic GSH; design: species or system rat
Experimental: A test was carried out in vivo on four groups of four rats each, using, as a toxic substance, dichloropropane (DCP), the main constituent of several solvents. DCP is noxious both by ingestion and inhalation and has a notable toxicity to the liver, mediated by an almost total depletion of thiol groups, including those of GSH.
The experimental model involves the study of the effect of DCP toxicity in the rat, in respect of glutathione (GSH) concentration in the main target tissue: the liver.
Tests were carried out on four groups of rats. The first group of animals was administered 2 ml DCP/kg dissolved in oil (40% v/v) per os. Twenty-four hours after DCP administration, blood samples were taken for SGPT measurement, while the animals were sacrificed; small portions of liver were then excised and immediately deproteinized by homogenization in 6% PCA. The chromatographic analyses of GSH and GSSG (oxidized glutathione) were performed.
The second group of animals was treated with the test drug (600 mg/kg i.p.) two hours after DCP administration. The third and fourth groups were treated with N-acetyl-cysteine (NAC) (250 mg/kg i.p.) and, respectively, with glutathione (Tationil^R) (600 mg/kg i.p.).
An evaluation of the protective action of the test drug in respect of glutathione involvement in hepatic protection mechanisms was thus possible.

[1] = tested on: Lewis lung carcinoma cells; experiment: Transplantable neoplasms: metastases development in BALB/c mice; assay type: in vivo
Experimental: Male adult BALB/c mice weighing 20 g were stabled under standard conditions (24°±1° C., 12 h light/dark cycle, free access to food and water). Handlings were made in such a way as to avoid stressful stimuli.
All animals, subdivided into groups of 6, were treated 4 weeks with a PSC dose (600 mg/kg). […] Treatment was continued two weeks after tumour inoculation. The mice were sacrificed and the tumoral mass growth and the development of metastases, if any, were evaluated.

[2] = Behaviour and death rate of the test groups under PSC treatment; settings: in vivo
[3] = 600 mg/kg i.p., 30 days' treatment, 15 days after inoculation

In the case of `CC(=O)SC[C@H](NC(=O)[C@@H]1CCC(=O)N1)C(=O)O` [PSC, 2-(S)-(2-pyrrolidone-5-(S)-carbonyl amido)-3-acetylmercapto propionic acid] (HELM PEPTIDE1{[Glp].C}|PEPTIDE2{[ac]}$PEPTIDE1,PEPTIDE2,2:R3-1:R2$$$V2.0), the “normalization of hepatic GSH (in words)” value (hepatic GSH; DCP-treated rats) was “could not normalize the values of hepatic GSH”, the “GSH, average values” (hepatic GSH; liver, DCP 2 ml/kg per os + 600 mg/kg i.p.) was 2.7 nmol/mg protein and the “GSH, individual animals” value (hepatic GSH; liver, DCP 2 ml/kg per os + 600 mg/kg i.p., animals 1-4, listed as (I) (R = CH3), 600 mg/kg) was 2.6 nmol/mg protein and 2.4 nmol/mg protein and 3.4 nmol/mg protein. For the same compound, the “Mice with metastases, %” value [1, 3] was 33%, the Mice with metastases/group [1, 3] was 2/6 and the “metastatic process (in words)” value ([1]; mouse, in vivo) was “slows down the metastatic process”. The “behaviour and death rate of the test groups (in words)” value [2] was “did not significantly affect the behaviour and death rate of the various test groups” and the “death in tested groups (in words)” value [2] was “no death occurred in all tested groups”.

Source: patent publication US5736565A, “Therapeutic compounds suitable for the treatment of diseases connected with glutathione deficiency, process for their preparation, and pharmaceutical compositions containing same” (Prospa B.V., priority 1992, dated 1998)
